From PubChem BioAssay AID330 (DTP/NCI, 2004)
“And” between values parts separate entries of the source, which are not always exact repeats. Equal entries are not always repeated. Toxic doses and inconclusive results are not listed.

Tested on: P388 leukemia ip, CD2F1 mice, survival T/C
Experiment: NCI In Vivo Anticancer Drug Screen. Data for tumor model P388 Leukemia (intraperitoneal) in CD2F1 (CDF1) mice
Settings: endpoint: median survival time, higher = longer survival
In short: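 Mice carrying the transplanted tumor received test compound or vehicle. Survival was recorded in each group, and the value is the treated-group measurement divided by that of the vehicle-treated control group.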

[1] = dose: 50.0 mg/kg/injection, schedule: Q01DX005 (ip), vehicle: saline
[2] = dose: 100.0 mg/kg/injection, schedule: Q01DX005 (ip), vehicle: saline
[3] = dose: 200.0 mg/kg/injection, schedule: Q01DX005 (ip), vehicle: saline
[4] = dose: 50.0 mg/kg/injection, schedule: Q01DX009 (ip), vehicle: saline
[5] = dose: 100.0 mg/kg/injection, schedule: Q01DX009 (ip), vehicle: saline
[6] = dose: 50.0 mg/kg/injection, schedule: Q01DX005 (ip), vehicle: saline with Tween-80
[7] = dose: 100.0 mg/kg/injection, schedule: Q01DX005 (ip), vehicle: saline with Tween-80
[8] = dose: 200.0 mg/kg/injection, schedule: Q01DX005 (ip), vehicle: saline with Tween-80
[9] = dose: 50.0 mg/kg/injection, schedule: Q01DX005 (ip), vehicle: Klucel (hydroxypropylcellulose) (HPC)
[10] = dose: 100.0 mg/kg/injection, schedule: Q01DX005 (ip), vehicle: Klucel (hydroxypropylcellulose) (HPC)
[11] = dose: 200.0 mg/kg/injection, schedule: Q01DX005 (ip), vehicle: Klucel (hydroxypropylcellulose) (HPC)
[12] = dose: 50.0 mg/kg/injection, schedule: Q01DX009 (ip), vehicle: saline with Tween-80
[13] = dose: 100.0 mg/kg/injection, schedule: Q01DX009 (ip), vehicle: saline with Tween-80
[14] = dose: 100.0 mg/kg/injection, schedule: Q04DX002 (ip), vehicle: Klucel (hydroxypropylcellulose) (HPC)
[15] = dose: 200.0 mg/kg/injection, schedule: Q04DX002 (ip), vehicle: Klucel (hydroxypropylcellulose) (HPC)
[16] = dose: 400.0 mg/kg/injection, schedule: Q04DX002 (ip), vehicle: Klucel (hydroxypropylcellulose) (HPC)
[17] = dose: 200.0 mg/kg/injection, schedule: Q01DX009 (ip), vehicle: saline
[18] = dose: 50.0 mg/kg/injection, schedule: Q04DX003 (ip), vehicle: saline

SMILES: CC1SC(C)C1O (stereo not given)
- T/C (dose: 60.0 mg/kg/injection, schedule: Q01DX005 (ip), vehicle: saline): 104 % of control
- T/C (dose: 120.0 mg/kg/injection, schedule: Q01DX005 (ip), vehicle: saline): 108 % of control
- T/C (dose: 240.0 mg/kg/injection, schedule: Q01DX005 (ip), vehicle: saline): 93 % of control

SMILES: OCCCOCCCO
- T/C [1]: 109 % of control
- T/C [2]: 101 % of control
- T/C [3]: 114 % of control

SMILES: N/C(Cc1noc2ccccc12)=N\O
- T/C [4]: 109 % of control
- T/C [5]: 107 % of control

SMILES: Nc1[nH]c(=S)[nH]c(=O)c1N=Cc1ccc2c(c1)OCO2
- T/C (dose: 100.0 mg/kg/injection, schedule: Q04DX003 (ip), vehicle: Klucel (hydroxypropylcellulose) (HPC)): 108 % of control and 113 % of control
- T/C (dose: 200.0 mg/kg/injection, schedule: Q04DX003 (ip), vehicle: Klucel (hydroxypropylcellulose) (HPC)): 112 % of control and 114 % of control

SMILES: Nc1nc2[nH]c(=O)[nH]c(=O)c2[nH]1
- T/C [6]: 100 % of control
- T/C [7]: 102 % of control
- T/C [8]: 109 % of control

SMILES: Cc1nc2c3c4c(sc3nc(C)n2n1)CCCC4
- T/C [9]: 105 % of control
- T/C [10]: 100 % of control
- T/C [11]: 98 % of control

SMILES: CCC(c1ccc(OCC(=O)OCCNCCCl)cc1)C(CC)c1ccc(OCC(=O)OCCNCCCl)cc1 (stereo not given)
- T/C (dose: 25.0 mg/kg/injection, schedule: Q04DX002 (ip), vehicle: saline): 101 % of control
- T/C (dose: 50.0 mg/kg/injection, schedule: Q04DX002 (ip), vehicle: saline): 97 % of control
- T/C (dose: 100.0 mg/kg/injection, schedule: Q04DX002 (ip), vehicle: saline): 101 % of control
- T/C (dose: 100.0 mg/kg/injection, schedule: Q04DX002 (ip), vehicle: suspension in saline): 97 % of control
- T/C (dose: 200.0 mg/kg/injection, schedule: Q04DX002 (ip), vehicle: suspension in saline): 87 % of control

SMILES: COc1ccccc1/C=C(\C(=O)O)c1ccccc1
- T/C [9]: 96 % of control
- T/C [10]: 91 % of control

SMILES: CN1N=Cc2sc(Br)c(Br)c2B1O
- T/C [12]: 94 % of control
- T/C [13]: 101 % of control
- T/C (dose: 200.0 mg/kg/injection, schedule: Q01DX009 (ip), vehicle: saline with Tween-80): 94 % of control

SMILES: CCCCCCCCCCCCCCCC[N+]1(CCC(C)C)CCOCC1
- T/C [14]: 100 % of control
- T/C [15]: 94 % of control
- T/C [16]: 104 % of control

SMILES: Cc1[nH]c(=O)[nH]c(=O)c1/C=C/C(=O)NC(CO)CS(C)=O (stereo not given)
- T/C (dose: 0.07 mg/kg/injection, schedule: Q01DX009 (ip), vehicle: water): 108 % of control
- T/C (dose: 0.15 mg/kg/injection, schedule: Q01DX009 (ip), vehicle: water): 106 % of control and 100 % of control
- T/C (dose: 0.3 mg/kg/injection, schedule: Q01DX009 (ip), vehicle: water): 92 % of control and 110 % of control
- T/C (dose: 0.6 mg/kg/injection, schedule: Q01DX009 (ip), vehicle: water): 98 % of control and 110 % of control
- T/C (dose: 1.2 mg/kg/injection, schedule: Q01DX009 (ip), vehicle: water): 112 % of control
- T/C (dose: 2.0 mg/kg/injection, schedule: Q01DX009 (ip), vehicle: water): 118 % of control
- T/C (dose: 4.0 mg/kg/injection, schedule: Q01DX009 (ip), vehicle: water): 120 % of control
- T/C (dose: 16.0 mg/kg/injection, schedule: Q01DX009 (ip), vehicle: water): 111 % of control
- T/C (dose: 40.0 mg/kg/injection, schedule: Q01DX009 (ip), vehicle: water): 102 % of control
- T/C (dose: 64.0 mg/kg/injection, schedule: Q01DX009 (ip), vehicle: water): 116 % of control and 123 % of control
- T/C (dose: 128.0 mg/kg/injection, schedule: Q01DX009 (ip), vehicle: water): 124 % of control

SMILES: COc1ccccc1NC(=O)C(N=Nc1ccc(-c2nc3ccc(C)c(S(=O)(=O)O)c3s2)cc1S(=O)(=O)O)C(C)=O (stereo not given)
- T/C [4]: 104 % of control
- T/C [5]: 105 % of control
- T/C [17]: 109 % of control

SMILES: COc1cccc(CSCC(=O)O)c1
- T/C [4]: 97 % of control
- T/C [5]: 102 % of control
- T/C [17]: 92 % of control

SMILES: ON(C(=S)c1ccccc1)c1ccccc1
- T/C [6]: 105 % of control
- T/C [7]: 102 % of control
- T/C [8]: 102 % of control

SMILES: CC1CCC(C)N1P(=O)(N1CC1)N1CC1 (stereo not given)
- T/C (dose: 6.25 mg/kg/injection, schedule: Q04DX003 (ip), vehicle: saline): 108 % of control
- T/C (dose: 12.5 mg/kg/injection, schedule: Q01DX009 (ip), vehicle: saline): 110 % of control
- T/C (dose: 25.0 mg/kg/injection, schedule: Q01DX009 (ip), vehicle: saline): 90 % of control
- T/C (dose: 25.0 mg/kg/injection, schedule: Q04DX003 (ip), vehicle: saline): 160 % of control and 200 % of control
- T/C [18]: 155 % of control

SMILES: NNC(=O)CCCO
- T/C [18]: 105 % of control
- T/C (dose: 100.0 mg/kg/injection, schedule: Q04DX003 (ip), vehicle: saline): 98 % of control
- T/C (dose: 200.0 mg/kg/injection, schedule: Q04DX003 (ip), vehicle: saline): 103 % of control
- T/C (dose: 400.0 mg/kg/injection, schedule: Q04DX003 (ip), vehicle: saline): 105 % of control

SMILES: O=C1OCC23CC(=O)C(O)(c4oc(CO)cc(=O)c4O)C(CC12)O3 (stereo not given)
- T/C (dose: 25.0 mg/kg/injection, schedule: Q01DX009 (ip), vehicle: saline with Tween-80): 97 % of control
- T/C [12]: 100 % of control
- T/C [13]: 100 % of control

SMILES: CCN(CC)CCOCCC1(C)Oc2ccc(Cl)cc2O1 (stereo not given)
- T/C [4]: 93 % of control
- T/C [5]: 93 % of control

SMILES: CC1(C)O[P+]2(OC(C)(C)c3ccccc32)c2ccccc21
- T/C [14]: 96 % of control
- T/C [15]: 97 % of control
- T/C [16]: 96 % of control

SMILES: S=c1nc(-c2nc(=S)[nH]c3c2CCCCCCCCCC3)c2c([nH]1)CCCCCCCCCC2
- T/C (dose: 60.0 mg/kg/injection, schedule: Q01DX005 (ip), vehicle: Klucel (hydroxypropylcellulose) (HPC)): 99 % of control
- T/C (dose: 120.0 mg/kg/injection, schedule: Q01DX005 (ip), vehicle: Klucel (hydroxypropylcellulose) (HPC)): 92 % of control
- T/C (dose: 240.0 mg/kg/injection, schedule: Q01DX005 (ip), vehicle: Klucel (hydroxypropylcellulose) (HPC)): 93 % of control

SMILES: CCOC(=O)c1c(-c2ccccc2)noc1N
- T/C (dose: 25.0 mg/kg/injection, schedule: Q01DX005 (ip), vehicle: saline): 100 % of control
- T/C [1]: 100 % of control
- T/C [2]: 98 % of control
- T/C [3]: 100 % of control
- T/C (dose: 400.0 mg/kg/injection, schedule: Q01DX005 (ip), vehicle: saline): 104 % of control

SMILES: ClCc1ccc2ccc3ccc(CCl)nc3c2n1
- T/C (dose: 60.0 mg/kg/injection, schedule: Q01DX005 (ip), vehicle: saline with Tween-80): 103 % of control
- T/C (dose: 120.0 mg/kg/injection, schedule: Q01DX005 (ip), vehicle: saline with Tween-80): 100 % of control
- T/C (dose: 240.0 mg/kg/injection, schedule: Q01DX005 (ip), vehicle: saline with Tween-80): 104 % of control

SMILES: CC(=NCCCCN=C(C)c1cc(C)cc(Br)c1O)c1cc(C)cc(Br)c1O.[Co]
- T/C (dose: 6.25 mg/kg/injection, schedule: Q01DX005 (ip), vehicle: Klucel (hydroxypropylcellulose) (HPC)): 99 % of control and 104 % of control
- T/C (dose: 12.5 mg/kg/injection, schedule: Q01DX005 (ip), vehicle: Klucel (hydroxypropylcellulose) (HPC)): 100 % of control and 106 % of control
- T/C (dose: 25.0 mg/kg/injection, schedule: Q01DX005 (ip), vehicle: Klucel (hydroxypropylcellulose) (HPC)): 101 % of control and 109 % of control and 283 % of control
- T/C [9]: 98 % of control and 109 % of control and 283 % of control
- T/C [10]: 106 % of control and 97 % of control
- T/C [11]: 97 % of control

SMILES: CC(Nc1ccc(S(=O)(=O)Nc2ncccn2)cc1)c1ccc2cccnc2c1O (stereo not given)
- T/C (dose: 100.0 mg/kg/injection, schedule: Q01DX001 (ip), vehicle: saline with Tween-80): 94 % of control
- T/C (dose: 200.0 mg/kg/injection, schedule: Q01DX001 (ip), vehicle: saline with Tween-80): 98 % of control

SMILES: Cc1c(N2CCCC2)cc2c(c1NC(=O)c1ccccc1Cl)C(C)(C)CC2(C)C
- T/C (dose: 50.0 mg/kg/injection, schedule: Q01DX009 (ip), vehicle: Klucel (hydroxypropylcellulose) (HPC)): 99 % of control
- T/C (dose: 100.0 mg/kg/injection, schedule: Q01DX009 (ip), vehicle: Klucel (hydroxypropylcellulose) (HPC)): 100 % of control
- T/C (dose: 200.0 mg/kg/injection, schedule: Q01DX009 (ip), vehicle: Klucel (hydroxypropylcellulose) (HPC)): 99 % of control

SMILES: CC(/C=C/c1ccccc1)=N\NS(=O)(=O)c1ccc(C)cc1
- T/C [6]: 95 % of control
- T/C [7]: 91 % of control
